From patent US20100291074A1, “CYCLOPHILIN D-AMYLOID BETA INTERACTION POTENTIATES MITOCHONDRIAL DYSFUNCTION IN A TRANSGENIC MOUSE MODEL OF ALZHEIMER'S DISEASE” (COLUMBIA UNIVERSITY IN THE CITY OF NEW YORK, priority 2007, published 2010) come the findings set out here.

This assay concerns cultured cortical neurons. Description: Mitochondrial membrane potential (TMRM) in cultured neurons. The note with it: for TMRM-positive neurons after H2O2: H2O2 one hour, FACS. It counts as cell-based, mice. As for the experimental part: FIGS. 5. […] (A) Western blot of cultured cortical neuron derived from nonTg and CypD-deficient mice was performed by specific α-CypD IgG. […] (F-G) FACS analysis of TMRM staining in nonTg and CypD−/− neurons treated with increasing concentrations of H2O2 for one hour. (G) Analyses of % TMRM positive neurons combined 3-4 independent experiments. […] (H-I) TMRM staining in H2O2-treated nonTg and CypD−/− neurons as shown by confocal microscopy in live cells. (J-L). FACS analysis of propidium iodide (PI) staining in nonTg and CypD−/−neurons treated with H2O2 for one hour. Percentages of PI-positive and -negative cells were shown as red line and black line, respectively.
Mitochondrial membrane potential […] was determined in primary cultured neuron derived from nonTg and Tg CypD−/− mice.
Murine cortical neurons were cultured as described. Briefly, murine cortex were dissected from Day 1 pups of nonTg and Tg CypD−/− mice, dissociated with 0.05% trypsin, and triturated in ice-cold Neurobasal A medium. Cells were then centrifuged at 200 g for 5 min to get rid of the debris. The resulting pellets were resuspended in culture medium (neurobasal A with 2% B27 supplement, 0.5 mM L-glutamine, 50 U/ml penicillin, and 50 μg/ml streptomycin) and plated onto poly-L-lysine-coated culture plates with an appropriate density. Aβ or H2O2 was added to the cultured medium at day 5 cultured neurons.
Primary cultured neurons derived from nonTg and CypD-deficient mice were incubated with 2 μM oligomeric Aβ, or H2O2 for various time points. The mitochondrial ROS was detected with 1 μM MitoSox staining The cytochrome c release was assessed by ELISA (Active Motif). Mitochondrial membrane potential was determined by TMRM labeling and analyzed by flow cytometry as described above. Apoptosis was assessed by TUNEL assay using in situ cell death detection kit (Roche).

“Also recorded” adds a separate entry of the source.

For `OO` [H2O2], the “TMRM-positive neurons after H2O2” value worked out at 32% (CypD−/− neurons, from 73% before) and 5.5% (nonTg neurons, from 73.8% before).

Consider `N#CC(C#N)=NNc1ccc(OC(F)(F)F)cc1` [FCCP, carbonyl cyanide p-(trifluoromethoxy) phenylhydrazone], for which the “mitochondrial membrane potential ΔΨm (TMRM)” value (FCCP (1 μM), nonTg and CypD−/− neurons) is given as “able to dissipate mitochondria ΔΨ; also recorded: dissipated membrane ΔΨm”.
